Reference: PubChem BioAssay AID248 (DTP/NCI, 2004)
Several values for one entry are separate records, joined by “and”; a condition that tells them apart may be missing. Identical values can stand only once. Toxic doses and inconclusive results are not listed. Rule as the data show it: active = T/C of 150% or more; inactive = T/C below 125%.

Test system: L1210 leukemia ip in BDF1 mice, survival T/C
Test: NCI In Vivo Anticancer Drug Screen. Data for tumor model L1210 Leukemia (intraperitoneal) in B6D2F1 (BDF1) mice
Details: endpoint: mean survival time, higher = longer survival
In short: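 Value reflects the ratio of survival in compound-treated mice to survival in vehicle-treated controls, with both groups carrying the same transplanted tumor.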

[1] = dose: 100.0 mg/kg/injection, schedule: Q04DX003 (ip), vehicle: Klucel (hydroxypropylcellulose) (HPC)
[2] = dose: 200.0 mg/kg/injection, schedule: Q04DX003 (ip), vehicle: Klucel (hydroxypropylcellulose) (HPC)
[3] = dose: 400.0 mg/kg/injection, schedule: Q04DX003 (ip), vehicle: Klucel (hydroxypropylcellulose) (HPC)
[4] = dose: 100.0 mg/kg/injection, schedule: Q04DX003 (ip), vehicle: saline with Tween-80
[5] = dose: 200.0 mg/kg/injection, schedule: Q04DX003 (ip), vehicle: saline with Tween-80
[6] = dose: 400.0 mg/kg/injection, schedule: Q04DX003 (ip), vehicle: saline with Tween-80

Measured: T/C

COC1=C(N)C(=O)c2nc(-c3nc(C(=O)O)c(C)c(-c4ccc(OC)c(OC)c4O)c3N)ccc2C1=O
inactive: dose: 0.02 mg/kg/injection, schedule: Q01DX009 (ip), vehicle: other 86 % of control | dose: 0.05 mg/kg/injection, schedule: Q01DX009 (ip), vehicle: other 94 % of control | dose: 0.05 mg/kg/injection, schedule: Q04DX002 (ip), vehicle: saline 106 % of control | dose: 0.1 mg/kg/injection, schedule: Q01DX Z (ip), vehicle: alkali diluted with CMC 103 % of control and 109 % of control | dose: 0.1 mg/kg/injection, schedule: Q01DX Z (ip), vehicle: water 105 % of control | dose: 0.1 mg/kg/injection, schedule: Q04DX002 (ip), vehicle: saline 120 % of control | dose: 0.12 mg/kg/injection, schedule: Q01DX001 (iv), vehicle: other 102 % of control | dose: 0.12 mg/kg/injection, schedule: Q01DX009 (ip), vehicle: saline 106 % of control | dose: 0.18 mg/kg/injection, schedule: Q01DX001 (ip), vehicle: other 124 % of control | dose: 0.2 mg/kg/injection, schedule: Q01DX009 (ip), vehicle: other 102 % of control | dose: 0.2 mg/kg/injection, schedule: Q01DX Z (ip), vehicle: alkali diluted with CMC 96 % of control and 106 % of control | dose: 0.2 mg/kg/injection, schedule: Q01DX Z (ip), vehicle: water 105 % of control | dose: 0.2 mg/kg/injection, schedule: Q04DX002 (ip), vehicle: saline 113 % of control | dose: 0.25 mg/kg/injection, schedule: Q01DX001 (iv), vehicle: other 114 % of control | dose: 0.25 mg/kg/injection, schedule: Q01DX009 (ip), vehicle: saline 106 % of control and 116 % of control | dose: 0.25 mg/kg/injection, schedule: Q01DX015 (ip), vehicle: water 118 % of control | dose: 0.3 mg/kg/injection, schedule: Q01DX Z (ip), vehicle: water 102 % of control | dose: 0.39 mg/kg/injection, schedule: Q04DX002 (ip), vehicle: saline 110 % of control | dose: 0.4 mg/kg/injection, schedule: Q01DX Z (ip), vehicle: alkali diluted with CMC 104 % of control and 106 % of control | dose: 0.45 mg/kg/injection, schedule: Q01DX Z (ip), vehicle: saline 107 % of control | dose: 0.5 mg/kg/injection, schedule: Q01DX001 (ip), vehicle: carboxymethylcellulose (CMC) 95 % of control | dose: 0.5 mg/kg/injection, schedule: Q01DX001 (iv), vehicle: other 105 % of control | dose: 0.5 mg/kg/injection, schedule: Q01DX009 (ip), vehicle: saline 108 % of control and 86 % of control | dose: 0.5 mg/kg/injection, schedule: Q01DX015 (ip), vehicle: water 101 % of control | dose: 0.66 mg/kg/injection, schedule: Q01DX Z (ip), vehicle: saline 110 % of control | dose: 0.75 mg/kg/injection, schedule: Q01DX001 (ip), vehicle: other 118 % of control | dose: 0.78 mg/kg/injection, schedule: Q04DX002 (ip), vehicle: saline 106 % of control | dose: 0.8 mg/kg/injection, schedule: Q01DX Z (ip), vehicle: alkali diluted with CMC 96 % of control and 91 % of control | dose: 1.0 mg/kg/injection, schedule: Q01DX001 (iv), vehicle: other 91 % of control | dose: 1.5 mg/kg/injection, schedule: Q01DX001 (ip), vehicle: other 121 % of control | dose: 1.5 mg/kg/injection, schedule: Q01DX001 (ip), vehicle: saline 120 % of control | dose: 2.0 mg/kg/injection, schedule: Q01DX001 (ip), vehicle: carboxymethylcellulose (CMC) 88 % of control | dose: 2.5 mg/kg/injection, schedule: Q01DX001 (oral), vehicle: water 105 % of control | dose: 5.0 mg/kg/injection, schedule: Q01DX001 (oral), vehicle: water 98 % of control | dose: 10.0 mg/kg/injection, schedule: Q01DX001 (oral), vehicle: water 88 % of control

COC(=O)c1ncn(/C=C/c2ccccc2)c1C(=O)O
inactive: [1] 92 % of control | [2] 91 % of control | [3] 87 % of control

COc1ccc([N+](=O)[O-])cn1
inactive: [4] 98 % of control | [5] 91 % of control | [6] 88 % of control

N#Cc1cnc(N)c(C#N)c1
inactive: dose: 74.0 mg/kg/injection, schedule: Q01DX009 (ip), vehicle: Klucel (hydroxypropylcellulose) (HPC) 98 % of control | dose: 150.0 mg/kg/injection, schedule: Q01DX009 (ip), vehicle: Klucel (hydroxypropylcellulose) (HPC) 100 % of control

Cc1ccc(S(=O)(=O)OCC2C3CCC(C3=O)C2COS(=O)(=O)c2ccc(C)cc2)cc1 (centres undefined)
inactive: dose: 50.0 mg/kg/injection, schedule: Q04DX003 (ip), vehicle: saline with Tween-80 98 % of control | [4] 96 % of control and 106 % of control | [5] 98 % of control | [6] 86 % of control

CCC1=CC2CC3(C(=O)OC)c4[nH]c5ccccc5c4CC[N+](Cc4ccccc4)(C2)C13 (centres undefined)
inactive: dose: 100.0 mg/kg/injection, schedule: Q01DX001 (ip), vehicle: saline 100 % of control

C[N+](C)(C)CCC[N+](C)(C)CCN1C(=O)c2cccc3cccc(c23)C1=O
inactive: dose: 6.25 mg/kg/injection, schedule: Q01DX001 (ip), vehicle: saline 103 % of control | dose: 12.5 mg/kg/injection, schedule: Q01DX001 (ip), vehicle: saline 103 % of control | dose: 25.0 mg/kg/injection, schedule: Q01DX001 (ip), vehicle: saline 103 % of control | dose: 50.0 mg/kg/injection, schedule: Q01DX001 (ip), vehicle: saline 101 % of control

COc1ccc(Cl)cc1NC(=O)Nc1cc(Cl)c(Cl)cc1C
inactive: dose: 100.0 mg/kg/injection, schedule: Q01DX009 (ip), vehicle: Klucel (hydroxypropylcellulose) (HPC) 102 % of control | [1] 95 % of control | dose: 200.0 mg/kg/injection, schedule: Q01DX009 (ip), vehicle: Klucel (hydroxypropylcellulose) (HPC) 100 % of control | [2] 94 % of control | dose: 400.0 mg/kg/injection, schedule: Q01DX009 (ip), vehicle: Klucel (hydroxypropylcellulose) (HPC) 97 % of control | [3] 94 % of control

C1CCC2C(C1)CCCC2C(C1CCCC2CCCCC21)C1CCCC2CCCCC21 (centres undefined)
inactive: dose: 100.0 mg/kg/injection, schedule: Q01DX001 (ip), vehicle: saline with Tween-80 90 % of control | dose: 200.0 mg/kg/injection, schedule: Q01DX001 (ip), vehicle: saline with Tween-80 90 % of control | dose: 400.0 mg/kg/injection, schedule: Q01DX001 (ip), vehicle: saline with Tween-80 90 % of control

O=C(O)c1c[nH]c2c(ccc3ccccc32)c1=O
inactive: dose: 100.0 mg/kg/injection, schedule: Q04DX002 (ip), vehicle: Klucel (hydroxypropylcellulose) (HPC) 103 % of control | dose: 200.0 mg/kg/injection, schedule: Q04DX002 (ip), vehicle: Klucel (hydroxypropylcellulose) (HPC) 122 % of control | dose: 400.0 mg/kg/injection, schedule: Q04DX002 (ip), vehicle: Klucel (hydroxypropylcellulose) (HPC) 92 % of control
